{
  "source": "patent US10023601B2",
  "about": "“Hydrolysis resistant sialic acid derivatives and methods for their use” (The University of British Columbia, priority 2014, dated 2018)",
  "key": {"[1]": {"test": "Spontaneous hydrolysis of 7-modified sialyl-galactose conjugates by 1H-NMR", "format": "physicochemical", "conditions": "high salt, dilute acid (25 mM HCl)"}, "[2]": {"molecular_target": "influenza neuraminidase N9 (GH34) (Influenza A virus, UniProt P03472)", "sequence (P03472 whole entry, looked up)": "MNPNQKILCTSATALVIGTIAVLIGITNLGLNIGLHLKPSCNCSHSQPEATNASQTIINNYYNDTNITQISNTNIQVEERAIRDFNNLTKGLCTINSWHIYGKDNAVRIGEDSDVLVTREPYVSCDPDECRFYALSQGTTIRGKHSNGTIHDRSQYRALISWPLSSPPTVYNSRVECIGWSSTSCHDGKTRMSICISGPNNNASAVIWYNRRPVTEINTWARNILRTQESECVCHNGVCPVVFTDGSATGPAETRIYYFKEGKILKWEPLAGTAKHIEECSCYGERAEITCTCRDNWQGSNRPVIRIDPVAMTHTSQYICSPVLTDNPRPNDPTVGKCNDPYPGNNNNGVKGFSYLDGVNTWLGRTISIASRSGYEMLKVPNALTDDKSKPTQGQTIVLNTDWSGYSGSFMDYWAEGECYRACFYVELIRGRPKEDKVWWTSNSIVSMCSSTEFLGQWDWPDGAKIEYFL", "format": "biochemical", "conditions": "pH 5.9"}, "[3]": {"molecular_target": "T1, T. rangeli (GH33) sialidase (TrSA) (Trypanosoma rangeli, UniProt O44049)", "T1 sequence (O44049 23-660)": "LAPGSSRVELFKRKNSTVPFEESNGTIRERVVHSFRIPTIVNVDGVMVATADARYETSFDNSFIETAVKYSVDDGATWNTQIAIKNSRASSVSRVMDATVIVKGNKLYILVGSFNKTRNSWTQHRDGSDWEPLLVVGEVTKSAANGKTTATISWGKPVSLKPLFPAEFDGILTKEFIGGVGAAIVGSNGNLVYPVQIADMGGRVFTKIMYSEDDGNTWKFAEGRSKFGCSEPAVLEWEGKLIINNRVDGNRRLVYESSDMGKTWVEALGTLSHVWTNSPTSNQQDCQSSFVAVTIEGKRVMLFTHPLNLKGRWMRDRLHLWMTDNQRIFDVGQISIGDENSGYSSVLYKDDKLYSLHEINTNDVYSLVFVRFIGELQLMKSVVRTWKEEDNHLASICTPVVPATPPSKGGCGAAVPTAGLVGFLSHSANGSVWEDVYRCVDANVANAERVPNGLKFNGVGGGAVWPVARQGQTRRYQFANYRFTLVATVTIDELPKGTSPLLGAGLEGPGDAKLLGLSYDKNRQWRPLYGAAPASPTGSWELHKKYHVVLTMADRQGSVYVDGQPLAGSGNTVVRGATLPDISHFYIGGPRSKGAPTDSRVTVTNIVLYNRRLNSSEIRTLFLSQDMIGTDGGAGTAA", "test": "Sialidase kinetics, β-galactosidase coupled assay, T. rangeli sialidase"}, "[4]": {"molecular_target": "C. perfringens (GH33) sialidase (NanI) (Clostridium perfringens, UniProt A0A0H2YQR1)", "sequence (A0A0H2YQR1 1-694)": "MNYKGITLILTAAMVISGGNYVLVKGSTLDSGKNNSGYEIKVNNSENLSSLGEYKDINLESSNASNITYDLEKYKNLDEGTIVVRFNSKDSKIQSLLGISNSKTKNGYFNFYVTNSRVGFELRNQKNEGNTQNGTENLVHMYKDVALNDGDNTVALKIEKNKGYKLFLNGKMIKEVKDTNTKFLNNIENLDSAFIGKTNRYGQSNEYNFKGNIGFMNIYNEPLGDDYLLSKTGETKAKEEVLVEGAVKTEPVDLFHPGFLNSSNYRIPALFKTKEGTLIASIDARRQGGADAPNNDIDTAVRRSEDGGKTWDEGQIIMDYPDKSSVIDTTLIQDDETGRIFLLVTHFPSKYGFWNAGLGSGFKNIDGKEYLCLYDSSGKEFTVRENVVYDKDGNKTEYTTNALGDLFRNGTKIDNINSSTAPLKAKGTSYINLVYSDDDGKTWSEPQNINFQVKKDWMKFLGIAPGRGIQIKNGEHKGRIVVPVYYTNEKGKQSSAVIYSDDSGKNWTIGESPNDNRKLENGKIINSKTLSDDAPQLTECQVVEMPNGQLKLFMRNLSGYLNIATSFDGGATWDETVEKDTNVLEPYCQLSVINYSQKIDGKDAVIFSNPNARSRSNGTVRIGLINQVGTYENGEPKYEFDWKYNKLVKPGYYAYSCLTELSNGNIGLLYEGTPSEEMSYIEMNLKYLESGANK", "format": "biochemical"}, "[5]": {"molecular_target": "T2, Pm0188h (Pasteurella multocida, UniProt Q15KI8)", "T2 sequence (Q15KI8 26-412)": "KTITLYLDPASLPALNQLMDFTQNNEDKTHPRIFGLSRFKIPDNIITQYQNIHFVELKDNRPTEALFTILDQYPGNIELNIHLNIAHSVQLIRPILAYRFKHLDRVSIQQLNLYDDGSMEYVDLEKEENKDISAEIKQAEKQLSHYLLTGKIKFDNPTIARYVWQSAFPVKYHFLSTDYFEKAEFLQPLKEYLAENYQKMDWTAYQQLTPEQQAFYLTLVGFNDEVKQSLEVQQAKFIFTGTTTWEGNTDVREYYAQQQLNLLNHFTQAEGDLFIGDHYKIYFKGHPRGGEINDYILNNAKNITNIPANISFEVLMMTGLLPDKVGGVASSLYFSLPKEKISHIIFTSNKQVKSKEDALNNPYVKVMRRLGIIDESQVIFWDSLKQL", "test": "Sialyltransferase kinetics, CMP release assay, transfer to lactose by Pm0188h"}, "[6]": {"test": "Spontaneous hydrolysis of CMP 7-modified sialic acids by 1H-NMR", "format": "physicochemical"}, "[7]": {"molecular_target": "Cst-I (Campylobacter jejuni, UniProt Q9RGF1)", "sequence (Q9RGF1 1-285 limits assumed)": "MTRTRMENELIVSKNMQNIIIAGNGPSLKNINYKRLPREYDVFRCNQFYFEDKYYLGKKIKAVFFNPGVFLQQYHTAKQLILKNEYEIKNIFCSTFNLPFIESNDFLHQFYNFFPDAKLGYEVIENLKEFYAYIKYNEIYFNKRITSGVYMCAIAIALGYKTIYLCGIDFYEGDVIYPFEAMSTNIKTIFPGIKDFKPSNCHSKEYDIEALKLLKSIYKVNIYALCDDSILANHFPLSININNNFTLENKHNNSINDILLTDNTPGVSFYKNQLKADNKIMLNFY"}},
  "note": "Counter-ions that a name gives are not always drawn. Like-named read-outs stand apart in the source and are kept apart here.",
  "data": [
    {"smiles": "CC(=O)NC1C(O)CC(OC2C(O)C(CO)OC(Oc3ccc4c(C)cc(=O)oc4c3)C2O)(C(=O)O)OC1C(F)C(O)CO", "note": "[compound 20, 4-Methylumbelliferyl (5-acetamido-3,5,7-trideoxy-7-fluoro-D-glycero-α-D-galacto-non2-ulopyranosylonic acid)-(23)-β-D-galactopyranoside]", "values": [
      {"measurement": "spontaneous hydrolysis rate constant", "setting": "[1]", "value": "0.29 (±0.01) h-1"}
    ]},
    {"smiles": "CC(=O)N[C@H]1[C@H]([C@H](F)[C@H](O)CO)O[C@@](O[C@H]2[C@@H](O)[C@@H](CO)O[C@@H](Oc3ccccc3[N+](=O)[O-])[C@@H]2O)(C(=O)O)C[C@@H]1O", "note": "[compound 18, ortho-Nitrophenyl (5-Acetamido-3,5,7-trideoxy-7-fluoro-D-glycero-α-D-galacto-non2-ulopyranosylonic acid)-(2→3)-β-D-galactopyranoside]", "values": [
      {"measurement": "Km", "setting": "[2]", "value": 390, "unit": "µM"},
      {"measurement": "Vm", "setting": "[2]", "value": "4.6 (±0.2) μM min^−1"},
      {"measurement": "saturation of enzyme by substrate", "setting": "[3]", "value": "Saturation was not achieved"},
      {"measurement": "saturation of enzyme by substrate", "setting": "[4]", "value": "Saturation was not achieved"}
    ]},
    {"smiles": "CC(=O)N[C@H]1[C@H](C(F)(F)[C@H](O)CO)O[C@](OP(=O)(O)OC[C@H]2O[C@@H](n3ccc(N)nc3=O)[C@H](O)[C@@H]2O)(C(=O)O)C[C@@H]1O", "note": "[compound 15, 5-Acetamido-3,5,7-trideoxy-2-(hydrogen 5′-cytidylate)-7,7-difluoro-D-glycero-b-D-galacto-2-nonulopyranosidic acid diammonium salt]", "values": [
      {"measurement": "kcat (rel)", "setting": "[5]", "value": 0.06},
      {"measurement": "krel", "setting": "[6]", "value": 0.01},
      {"measurement": "Hydrolysis rate constant", "setting": "[6]; pH 7.2", "value": "0.0084 (±0.0008) h^−1"},
      {"measurement": "kcat (rel)", "setting": "[7]", "value": 0.25}
    ]},
    {"smiles": "CC(=O)N[C@H]1[C@H]([C@H](O)[C@H](O)CO)O[C@](OP(=O)(O)OC[C@H]2O[C@@H](n3ccc(N)nc3=O)[C@H](O)[C@@H]2O)(C(=O)O)C[C@@H]1O", "note": "[compound 16, CMP-NeuNAc, reference compound]", "values": [
      {"measurement": "kcat (rel)", "setting": "[5]", "value": 1},
      {"measurement": "krel", "setting": "[6]; spontaneous hydrolysis rate relative to CMP-NeuNAc", "value": 1},
      {"measurement": "Hydrolysis rate constant", "setting": "[6]; spontaneous hydrolysis, high salt pH 7.2 buffer, 1H-NMR", "value": "0.94 (±0.01) h^−1"},
      {"measurement": "kcat (rel)", "setting": "[7]", "value": 1}
    ]},
    {"smiles": "CC(=O)N[C@H]1[C@H]([C@H](F)[C@H](O)CO)O[C@](OP(=O)(O)OC[C@H]2O[C@@H](n3ccc(N)nc3=O)[C@H](O)[C@@H]2O)(C(=O)O)C[C@@H]1O", "note": "[compound 14, 5-Acetamido-3,5,7-trideoxy-2-(hydrogen 5′-cytidylate)-7-fluoro-D-glycero-b-D-galacto-2-nonulopyranosidic acid diammonium salt]", "values": [
      {"measurement": "kcat (rel)", "setting": "[5]", "value": 0.54},
      {"measurement": "krel", "setting": "[6]", "value": 0.33},
      {"measurement": "Hydrolysis rate constant", "setting": "[6]; pH 7.2", "value": "0.313 (±0.002) h^−1"},
      {"measurement": "kcat (rel)", "setting": "[7]", "value": 0.77}
    ]},
    {"smiles": "CC(=O)NC1C(O)CC(OC2C(O)C(CO)OC(Oc3ccc4c(C)cc(=O)oc4c3)C2O)(C(=O)O)OC1C(O)C(O)CO", "note": "[compound 19, 4-Methylumbelliferyl (5-acetamido-3,5-dideoxy-D-glycero-α-D-galacto-non2-ulopyranosylonic acid)-(2→3)-β-D-galactopyranoside, reference compound]", "values": [
      {"measurement": "spontaneous hydrolysis rate constant", "setting": "[1]", "value": "1.45 (±0.8) h-1"}
    ]},
    {"smiles": "CC(=O)N[C@H]1[C@H]([C@H](O)[C@H](O)CO)O[C@@](O[C@H]2[C@@H](O)[C@@H](CO)O[C@@H](Oc3ccccc3[N+](=O)[O-])[C@@H]2O)(C(=O)O)C[C@@H]1O", "note": "[compound 17, ortho-Nitrophenyl (5-Acetamido-3,5-dideoxy-D-glycero-α-D-galacto-non2-ulopyranosylonic acid)-(2→3)-β-D-galactopyranoside, reference compound]", "values": [
      {"measurement": "Km", "setting": "[2]", "value": 830, "unit": "µM"},
      {"measurement": "Vm", "setting": "[2]", "value": "17.5 (±0.5) μM min^−1"},
      {"measurement": "kcat", "setting": "[3]; sialidase substrate, 30° C., pH 6.0", "value": "83 (±4) min^−1"},
      {"measurement": "Km", "setting": "[4]; pH 6.7", "value": 800, "unit": "µM"},
      {"measurement": "kcat", "setting": "[4]; pH 6.7", "value": "78 (±2) min^−1"}
    ]}
  ]
}
